Data taken from ChEMBL document CHEMBL1201862, “PubChem BioAssay data set” (2004).
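1) Cells in 96-well plates. 2) Compound, 48 h, 5 concentrations. 3) Linear interpolation between surrounding doses. 4) Unreached endpoint = highest concentration. GI50 is the concentration that inhibits growth by half.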 Active and inactive are the calls of the source. Cut-off read from the data, not from the text of the source: active = GI50 up to about 1.1 µM and inactive = higher.

Tests used:
Test in all cases: NCI tumour cell line growth inhibition, 48 h
NCI/ADR-RES = test system: NCI/ADR-RES
UACC-257 = test system: UACC-257
PC-3 = test system: PC-3
SK-MEL-2 = test system: SK-MEL-2
SR = test system: SR
A498 = test system: A498
IGROV-1 = test system: IGROV-1
UO-31 = test system: UO-31
RPMI-8226 = test system: RPMI-8226
Malme-3M = test system: Malme-3M
KM12 = test system: KM12
SNB-19 = test system: SNB-19
SN12C = test system: SN12C
NCI-H460 = test system: NCI-H460
DU-145 = test system: DU-145
EKVX = test system: EKVX
T47D = test system: T47D
HOP-62 = test system: HOP-62
SF-268 = test system: SF-268
SF-539 = test system: SF-539
786-0 = test system: 786-0
CCRF-CEM = test system: CCRF-CEM
COLO 205 = test system: COLO 205
Hs-578T = test system: Hs-578T
BT-549 = test system: BT-549
OVCAR-3 = test system: OVCAR-3
A549 = test system: A549
OVCAR-5 = test system: OVCAR-5
HCT-116 = test system: HCT-116
NCI-H522 = test system: NCI-H522
SK-MEL-5 = test system: SK-MEL-5
SK-MEL-28 = test system: SK-MEL-28
M14 = test system: M14
TK-10 = test system: TK-10
SF-295 = test system: SF-295
NCI-H226 = test system: NCI-H226
RXF 393 = test system: RXF 393
MCF7 = test system: MCF7
OVCAR-4 = test system: OVCAR-4
U-251 = test system: U-251
MDA-N = test system: MDA-N
MOLT-4 = test system: MOLT-4
SW-620 = test system: SW-620
ACHN = test system: ACHN
HCT-15 = test system: HCT-15
CAKI-1 = test system: CAKI-1
HOP-92 = test system: HOP-92
SK-OV-3 = test system: SK-OV-3
LOX IMVI = test system: LOX IMVI
MDA-MB-231 = test system: MDA-MB-231
UACC-62 = test system: UACC-62
MDA-MB-435 = test system: MDA-MB-435
HL-60 = test system: HL-60
OVCAR-8 = test system: OVCAR-8
HCC 2998 = test system: HCC 2998
HT-29 = test system: HT-29
NCI-H23 = test system: NCI-H23
K562 = test system: K562

C[C@H]1/C(=C/C(=O)OCCN(C)C)CC[C@H]2[C@H]1C(=O)C[C@H]1C(C)(C)[C@@H](O)CC[C@]21C
GI50 (NCI/ADR-RES): > 100 µM (inactive) | GI50 (UACC-257): > 100 µM (inactive) | GI50 (PC-3): > 100 µM (inactive) | GI50 (SK-MEL-2): > 100 µM (inactive) | GI50 (SR): > 100 µM (inactive) | GI50 (A498): > 100 µM (inactive) | GI50 (IGROV-1): > 100 µM (inactive) | GI50 (UO-31): > 100 µM (inactive) | GI50 (RPMI-8226): > 100 µM (inactive) | GI50 (Malme-3M): > 100 µM (inactive) | GI50 (KM12): > 100 µM (inactive) | GI50 (SNB-19): > 100 µM (inactive) | GI50 (SN12C): > 100 µM (inactive) | GI50 (NCI-H460): > 100 µM (inactive) | GI50 (DU-145): > 100 µM (inactive) | GI50 (EKVX): > 100 µM (inactive) | GI50 (T47D): > 100 µM (inactive) | GI50 (HOP-62): > 100 µM (inactive) | GI50 (SF-268): > 100 µM (inactive) | GI50 (SF-539): > 100 µM (inactive) | GI50 (786-0): > 100 µM (inactive) | GI50 (CCRF-CEM): > 100 µM (inactive) | GI50 (COLO 205): > 100 µM (inactive) | GI50 (Hs-578T): > 100 µM (inactive) | GI50 (BT-549): > 100 µM (inactive) | GI50 (OVCAR-3): > 100 µM (inactive) | GI50 (A549): > 100 µM (inactive) | GI50 (OVCAR-5): > 100 µM (inactive) | GI50 (HCT-116): > 100 µM (inactive) | GI50 (NCI-H522): > 100 µM (inactive) | GI50 (SK-MEL-5): > 100 µM (inactive) | GI50 (SK-MEL-28): > 100 µM (inactive) | GI50 (M14): > 100 µM (inactive) | GI50 (TK-10): > 100 µM (inactive) | GI50 (SF-295): > 100 µM (inactive) | GI50 (NCI-H226): 22.5 µM (inactive) | GI50 (RXF 393): > 100 µM (inactive) | GI50 (MCF7): > 100 µM (inactive) | GI50 (OVCAR-4): > 100 µM (inactive) | GI50 (U-251): > 100 µM (inactive) | GI50 (MDA-N): > 100 µM (inactive) | GI50 (MOLT-4): > 100 µM (inactive) | GI50 (SW-620): > 100 µM (inactive) | GI50 (ACHN): > 100 µM (inactive) | GI50 (HCT-15): > 100 µM | GI50 (CAKI-1): > 100 µM (inactive) | GI50 (HOP-92): > 100 µM (inactive) | GI50 (SK-OV-3): > 100 µM (inactive) | GI50 (LOX IMVI): > 100 µM (inactive) | GI50 (MDA-MB-231): > 100 µM (inactive) | GI50 (UACC-62): > 100 µM (inactive) | GI50 (MDA-MB-435): > 100 µM (inactive) | GI50 (HL-60): > 100 µM (inactive) | GI50 (OVCAR-8): > 100 µM (inactive) | GI50 (HCC 2998): > 100 µM (inactive) | GI50 (HT-29): > 100 µM (inactive) | GI50 (NCI-H23): > 100 µM (inactive)

COC(=O)C(NC(=O)OC(C)(C)C)P(=O)(OC)OC (stereo unspecified)
GI50 (NCI/ADR-RES): > 100 µM (inactive) | GI50 (UACC-257): > 100 µM (inactive) | GI50 (PC-3): > 100 µM (inactive) | GI50 (SK-MEL-2): > 100 µM (inactive) | GI50 (SR): > 100 µM (inactive) | GI50 (A498): > 100 µM (inactive) | GI50 (IGROV-1): > 100 µM (inactive) | GI50 (UO-31): > 100 µM (inactive) | GI50 (RPMI-8226): > 100 µM (inactive) | GI50 (Malme-3M): > 100 µM (inactive) | GI50 (KM12): > 100 µM (inactive) | GI50 (SNB-19): > 100 µM (inactive) | GI50 (SN12C): > 100 µM (inactive) | GI50 (DU-145): > 100 µM (inactive) | GI50 (EKVX): > 100 µM (inactive) | GI50 (T47D): > 100 µM (inactive) | GI50 (HOP-62): > 100 µM (inactive) | GI50 (SF-268): > 100 µM (inactive) | GI50 (786-0): > 100 µM (inactive) | GI50 (COLO 205): > 100 µM (inactive) | GI50 (Hs-578T): > 100 µM (inactive) | GI50 (BT-549): > 100 µM (inactive) | GI50 (OVCAR-3): > 100 µM (inactive) | GI50 (A549): > 100 µM (inactive) | GI50 (OVCAR-5): > 100 µM (inactive) | GI50 (HCT-116): > 100 µM (inactive) | GI50 (NCI-H522): > 100 µM (inactive) | GI50 (SK-MEL-5): > 100 µM (inactive) | GI50 (SK-MEL-28): > 100 µM (inactive) | GI50 (M14): > 100 µM (inactive) | GI50 (TK-10): > 100 µM (inactive) | GI50 (SF-295): > 100 µM (inactive) | GI50 (NCI-H226): > 100 µM (inactive) | GI50 (RXF 393): > 100 µM (inactive) | GI50 (MCF7): > 100 µM (inactive) | GI50 (OVCAR-4): > 100 µM (inactive) | GI50 (U-251): > 100 µM (inactive) | GI50 (MDA-N): > 100 µM (inactive) | GI50 (MOLT-4): > 100 µM (inactive) | GI50 (SW-620): > 100 µM (inactive) | GI50 (ACHN): > 100 µM (inactive) | GI50 (HCT-15): > 100 µM | GI50 (CAKI-1): > 100 µM (inactive) | GI50 (HOP-92): > 100 µM (inactive) | GI50 (SK-OV-3): > 100 µM (inactive) | GI50 (LOX IMVI): > 100 µM (inactive) | GI50 (MDA-MB-231): > 100 µM (inactive) | GI50 (UACC-62): > 100 µM (inactive) | GI50 (MDA-MB-435): > 100 µM (inactive) | GI50 (HL-60): > 100 µM (inactive) | GI50 (K562): > 100 µM (inactive) | GI50 (OVCAR-8): > 100 µM (inactive) | GI50 (HT-29): > 100 µM (inactive) | GI50 (NCI-H23): > 100 µM (inactive)
